Data taken from PubChem BioAssay (NCI).
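GI50 is the concentration that inhibits growth by half. TGI is the concentration that stops growth completely.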

Key:
Experiment in all cases: NCI anticancer screen, dose series, 384-well format
SK-MEL-28 melanoma = test system: SK-MEL-28 melanoma
NCI-H522 lung = test system: NCI-H522 lung
HCC-2998 colon = test system: HCC-2998 colon
NCI-H460 NSCLC = test system: NCI-H460 NSCLC
786-0 renal = test system: 786-0 renal
HL-60(TB) leukemia = test system: HL-60(TB) leukemia
ACHN renal = test system: ACHN renal
SN12C renal = test system: SN12C renal
MDA-MB-231 breast = test system: MDA-MB-231 breast
DU-145 prostate = test system: DU-145 prostate
BT-549 breast = test system: BT-549 breast
OVCAR-8 ovarian = test system: OVCAR-8 ovarian
NCI-H322M lung = test system: NCI-H322M lung

Cc1cc(Nc2ncc(Cl)c(Nc3ccccc3S(=O)(=O)C(C)C)n2)c(OC(C)C)cc1C1CCNCC1
GI50 (SK-MEL-28 melanoma): 1540 nM | TGI (SK-MEL-28 melanoma): 2880 nM | GI50 (NCI-H522 lung): 1760 nM | TGI (NCI-H522 lung): 3150 nM | GI50 (HCC-2998 colon): 202 nM | TGI (HCC-2998 colon): 552 nM | GI50 (NCI-H460 NSCLC): 1080 nM | TGI (NCI-H460 NSCLC): 2370 nM | GI50 (786-0 renal): 1260 nM | TGI (786-0 renal): 2520 nM | GI50 (HL-60(TB) leukemia): 218 nM | TGI (HL-60(TB) leukemia): 490 nM | GI50 (ACHN renal): 1770 nM | TGI (ACHN renal): 3170 nM | GI50 (SN12C renal): 1750 nM | TGI (SN12C renal): 3140 nM | GI50 (MDA-MB-231 breast): 1480 nM | TGI (MDA-MB-231 breast): 2810 nM | GI50 (DU-145 prostate): 1560 nM | TGI (DU-145 prostate): 2920 nM | GI50 (BT-549 breast): 1880 nM | TGI (BT-549 breast): 3300 nM | GI50 (OVCAR-8 ovarian): 1550 nM | TGI (OVCAR-8 ovarian): 2900 nM | GI50 (NCI-H322M lung): 1320 nM | TGI (NCI-H322M lung): 2600 nM
